Assays:
[1] = molecular target: T1, catalytic domain of MMP-13 enzyme (Homo sapiens, UniProt P45452); test: Assay for determining MMP-13 inhibition; assay type: biochemical; details: MMP-13 fluorescent substrate, pH 7.5; read-out: Summary of MMP-13 Activity for Compounds (IC50 MMP-13), Group
T1 construct: catalytic domain of MMP-13 enzyme (produced by Alantos or commercially available from Invitek (Berlin), Cat. No. 30100812); purchased Invitek (Berlin) 30100812
Experimental: Assay for Determining MMP-13 Inhibition
The typical assay for MMP-13 activity is carried out in assay buffer comprised of 50 mM Tris, pH 7.5, 150 mM NaCl, 5 mM CaCl2 and 0.05% Brij-35. Different concentrations of tested compounds are prepared in assay buffer in 50 μl aliquots. 10 μl of a 50 nM stock solution of catalytic domain of MMP-13 enzyme (produced by Alantos or commercially available from Invitek (Berlin), Cat. No. 30100812) is added to the compound solution. The mixture of enzyme and compound in assay buffer is thoroughly mixed and incubated for 10 min at room temperature. Upon the completion of incubation, the assay is started by addition of 40 μl of a 12.5 μM stock solution of MMP-13 fluorescent substrate (Calbiochem, Cat. No. 444235). The time-dependent increase in fluorescence is measured at the 320 nm excitation and 390 nm emission by automatic plate multireader. The IC50 values are calculated from the initial reaction rates.

[2] = molecular target: T2, catalytic domain of MMP-3 enzyme (Homo sapiens, UniProt P08254); test: Assay for determining MMP-3 inhibition; assay type: biochemical; details: fluorescent substrate NFF-3, pH 6.0; read-out: Summary of MMP-3 Activity for Compounds (IC50 MMP-3), Group
T2 construct: the catalytic domain of MMP-3 enzyme (Biomol, Cat. No. SE-109); purchased Biomol SE-109
T2 sequence (P08254 100-272 limits assumed): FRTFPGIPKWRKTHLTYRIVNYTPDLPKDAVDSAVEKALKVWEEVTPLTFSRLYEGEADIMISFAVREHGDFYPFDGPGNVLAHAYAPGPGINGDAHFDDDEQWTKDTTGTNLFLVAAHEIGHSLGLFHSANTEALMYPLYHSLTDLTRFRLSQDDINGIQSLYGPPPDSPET
Experimental: Assay for Determining MMP-3 Inhibition
The typical assay for MMP-3 activity is carried out in assay buffer comprised of 50 mM MES, pH 6.0, 10 mM CaCl2 and 0.05% Brij-35. Different concentrations of tested compounds are prepared in assay buffer in 50 μl aliquots. 10 μl of a 100 nM stock solution of the catalytic domain of MMP-3 enzyme (Biomol, Cat. No. SE-109) is added to the compound solution. The mixture of enzyme and compound in assay buffer is thoroughly mixed and incubated for 10 min at room temperature. Upon the completion of incubation, the assay is started by addition of 40 μl of a 12.5 μM stock solution of NFF-3 fluorescent substrate (Calbiochem, Cat. No. 480455). The time-dependent increase in fluorescence is measured at the 330 nm excitation and 390 nm emission by an automatic plate multireader. The IC50 values are calculated from the initial reaction rates.

Row | Compound | IC50 [1] [nM] | IC50 [2] [nM]
1 | O=C(NCc1ccccc1)c1c[nH]c2c(C(=O)NCc3ccc(F)cc3)ncnc12 [Example 6] | 101 to 20000 | 3 to 100
2 | CCC(CC)NC(=O)c1c[nH]c2c(C(=O)NCc3ccc4c(c3)NC(=O)CO4)ncnc12 [Example 31] | 101 to 20000 | 101 to 20000
3 | O=C1COc2ccc(CNC(=O)c3ncnc4c(C(=O)NCc5ccccc5)c[nH]c34)cc2N1 [Example 34] | 101 to 20000 | 3 to 100
4 | O=C1COc2ccc(CNC(=O)c3ncnc4c(C(=O)NCC5CCCCC5)c[nH]c34)cc2N1 [Example 35] | 101 to 20000 | 3 to 100
5 | O=C1COc2ccc(CNC(=O)c3ncnc4c(C(=O)NCC5(O)CCCCC5)c[nH]c34)cc2N1 [Example 40] | 101 to 20000 | 101 to 20000
6 | COc1cccc(CNC(=O)c2c[nH]c3c(C(=O)NCc4ccc5c(c4)NC(=O)CO5)ncnc23)c1 [Example 45] | 101 to 20000 | 101 to 20000
7 | CN(Cc1ccccc1)C(=O)c1c[nH]c2c(C(=O)NCc3ccc4c(c3)NC(=O)CO4)ncnc12 [Example 46] | 101 to 20000 | 3 to 100
8 | CCCCN(CC)C(=O)c1c[nH]c2c(C(=O)NCc3ccc4c(c3)NC(=O)CO4)ncnc12 [Example 47] | – | 3 to 100
9 | CCCN(CCC)C(=O)c1c[nH]c2c(C(=O)NCc3ccc4c(c3)NC(=O)CO4)ncnc12 [Example 48] | – | 3 to 100
10 | C[C@@H](NC(=O)c1c[nH]c2c(C(=O)NCc3ccc4c(c3)NC(=O)CO4)ncnc12)c1ccccc1 [Example 60] | – | 101 to 20000
11 | C[C@H](NC(=O)c1c[nH]c2c(C(=O)NCc3ccc4c(c3)NC(=O)CO4)ncnc12)c1ccccc1 [Example 61] | – | 101 to 20000

Further lines, results first:

Row | IC50 [1] [nM] | IC50 [2] [nM] | Compound
12 | – | 101 to 20000 | CC(C)NC(=O)c1c[nH]c2c(C(=O)NCc3ccc4c(c3)NC(=O)CO4)ncnc12 [Example 32]
13 | – | 3 to 100 | O=C1COc2ccc(CNC(=O)c3ncnc4c(C(=O)NC5CCCC5)c[nH]c34)cc2N1 [Example 33]
14 | – | 101 to 20000 | CNC(=O)c1c[nH]c2c(C(=O)NCc3ccc4c(c3)NC(=O)CO4)ncnc12 [Example 41]
15 | – | 101 to 20000 | O=C1COc2ccc(CNC(=O)c3ncnc4c(C(=O)N5CCC(O)CC5)c[nH]c34)cc2N1 [Example 42]
16 | 101 to 20000 | 3 to 100 | CC(C)(C)OC(=O)N1CC2CC1CN2C(=O)c1c[nH]c2c(C(=O)NCc3ccc4c(c3)NC(=O)CO4)ncnc12 (stereo not shown) [Example 50]
17 | 101 to 20000 | 3 to 100 | CC(C)(CO)NC(=O)c1c[nH]c2c(C(=O)NCc3ccc4c(c3)NC(=O)CO4)ncnc12 [Example 51]
18 | 101 to 20000 | 3 to 100 | COC(=O)[C@@H]1C[C@@H](O)CN1C(=O)c1c[nH]c2c(C(=O)NCc3ccc4c(c3)NC(=O)CO4)ncnc12 [Example 52]
19 | 101 to 20000 | 3 to 100 | O=C1CN(C(=O)c2c[nH]c3c(C(=O)NCc4ccc5c(c4)NC(=O)CO5)ncnc23)CCN1 [Example 62]
20 | – | 101 to 20000 | CCOC(=O)CC1C(=O)NCCN1C(=O)c1c[nH]c2c(C(=O)NCc3ccc4c(c3)NC(=O)CO4)ncnc12 (stereo not shown) [Example 63]

Reference: patent US20080221083A1, “Heterobicyclic metalloprotease inhibitors” (priority 2006, published 2008)
